# Test results taken from patent US20190248834A1, “ENDOMORPHIN-2, TETRAPEPTIDE DERIVATIVES THEREOF, AND USES THEREOF” (priority 2016, published 2019).
# Non-standard residues stand in square brackets, D forms with d. pGlu = O=C1CC[C@@H](C(=O)O)N1
# How the values were obtained:
# Format in all cases: in vivo, human
# [1] = test system: ordinary type of headache; experiment: Example 11: analgesic effect on headache, topical; details: 1% (w/v) in EP73, topical
# Text: A subject, developed an ordinary type of headache in the early afternoon. Such headaches usually would persist for several hours, being relieved incompletely by treatment with oral drugs, such as ibuprofen and/or acetaminophen. In this instance, they topically applied an anhydrous composition containing 1% (w/v) N-Ac-Tyr-Pro-Phe-Phe-NH2(SEQ ID NO: 23) in EP73 to the frontal and temporal areas.
# neck and shoulder pain = experiment: Example 16: analgesic effect on neck and shoulder pain, topical; details: 0.5% (w/v) in WEP442, topical
# Description: The subject could not move their neck without having a high level of pain and discomfort. The subject topically applied a composition containing 0.5% (w/v) N-Ac-Tyr-Pro-Phe-Phe-NH2(SEQ ID NO: 23) in WEP442 to the affected area of the skin. […] The pain relief lasted for more than 2 hours.
# [2] = test system: jaw pain after tooth extraction; experiment: Example 29: analgesic effect on dental extraction pain, topical
# Description: A subject had substantial pain in the right maxillary jaw that started about 2 hours after extraction of a right maxillary tooth. […] Only negligible discomfort, perceived by touching the extraction site with the tongue, was detectable thereafter.
# pain at injection sites = experiment: Example 39: analgesic effect on pain at site of subcutaneous injection of hyaluronic acid, topical; details: 1% (w/v) in WEP442, topical
# Text: A subject, experienced substantial pain in the zygomatic-facial areas, sites injected subcutaneously with a hyaluronic acid product (Restylane) six hours earlier for the cosmetic purpose of plumping up the skin.
# knee pain = experiment: Example 42: analgesic effect on knee pain following twisting of leg, topical; details: 1% (w/v) in WEP442, topical
# Text: A subject, twisted their left leg during work on building construction, causing substantial pain in the left knee. The pain persisted into the late evening, preventing them from falling asleep.
# [3] = test system: psoriatic arthritis pain, fingers and wrists; experiment: Example 48: comparative analgesic efficacy, psoriatic arthritis pain of fingers and wrists, topical; details: 1% (w/v) in WEP442, topical
# Text: […] Treatment of the subject over the years included methotrexate and other antimetabolites, and in recent years drugs known as biologic medications. While these agents have provided intervals of relief, none has provided a lasting benefit. Over the past decade, painful arthritis developed in both wrists and in numerous joints of the fingers. Four related tetrapeptide derivatives, 1% (w/v) solution compositions in vehicle WEP442, one at a time, were topically applied to the fingers and wrists of both hands. […] Efficacy was rated by the subject as 4+. • (B) N-Ac-Tyr-Pro-Phe-Phe-NHNH2 (SEQ ID NO: 31) provided slow relief of pain, i.e. within about 10 minutes. […] Analgesic efficacy was judged by the subject to be 0 to 1+.
# [4] = test system: knee pain, lateral meniscus; experiment: Example 58: analgesic effect on knee pain due to injured lateral meniscus, topical; details: 1% (w/v) in WEP442, topical
# Text: A subject had knee pain at the site of the lateral meniscus of the right knee, secondary to repeated trauma in the course of their work as a house builder. They evaluated two (2) tetrapeptide derivatives for efficacy in relieving this pain, including N-Ac-Tyr-Pro-Phe-Phe-NH2 (SEQ ID NO: 23) and N-Pg-Tyr-Pro-Phe-Phe-NH2 (SEQ ID NO: 44), both as a 1% (w/v) solution composition in WEP442. One solution composition was topically applied during the course of a day; and the other solution composition was topically applied during the course of the following day. The evaluation continued over a period of 8 days in this schedule.
# [5] = test system: psoriatic arthritis in the joints of both feet; experiment: Example 62: analgesic efficacy of psoriatic arthritis, feet, topical; details: 1% (w/v) in WEP442, topical
# Description: A subject with plague psoriasis had painful psoriatic arthritis in the joints of both feet for the past 10-12 years. Topical application of a composition containing 1% (w/v) of N-Ac-Tyr-Pro-Phe-Phe-NH2 (SEQ ID NO: 23) in WEP442 relieved the pain so that it was undetectable for 6-8 hours. Daily topical applications of the formulation for 5 days provided the same relief.
# [6] = test system: mechanically induced skin pain; experiment: Example 91: experimentally induced skin pain (needle roller), topical; details: 1% (w/v) in WEP442, topical before and after wounding
# Text: A subject, rolled onto their left forearm with forceful pressure a roller having many tiny stainless steel needles 1 mm in length, which penetrated through the epidermis causing sharp pain as well as punctate bleeding.
# [7] = test system: pain in the muscles of the neck; experiment: Example 57: analgesic effect on stress pain in muscles of the neck, topical; details: 0.6% (w/v) in WEP442, topical
# Description: A farmer suffered substantial pain in the muscles of their neck the day after ploughing a field for several hours. During that time, they had almost constantly strained their neck muscles looking backward to monitor the performance of the plough behind. The pain was such that it disabled them from turning their head even slightly. […] Reapplication of the solution at that time again relieved the pain for another 4 hours. With repeated applications, they were able to perform usual farm maintenance work for the entire day. After a night's rest, the pain subsided spontaneously.
# [8] = test system: post-operative knee soreness; experiment: Example 70: analgesic effect on post-operative tenderness and soreness of knee, topical; details: 0.6% (w/v) in WEP442, topical
# Text: A person underwent surgical repair of a bulging meniscus of the right knee, after which there was substantial tenderness and soreness, particularly so upon their walking, which they were advised to do a few hours daily during the recovery period. Skin glue had been used for wound closure, which allowed for topical applications of a composition containing 0.6% (w/v) of N-Pg-Tyr-Pro-Phe-Phe-NH2 (SEQ ID NO: 44) in WEP442 to the entire knee including 5 surgical wound sites. […] Repeated topical applications provided freedom of movement throughout the day with negligible discomfort.
# carpal tunnel syndrome = experiment: Example 78: analgesic effect on carpal tunnel syndrome, topical
# Description: A subject, and a computer operator, presented with symptoms of carpal tunnel syndrome, i.e. wrist pain and tingling sensations of the palm and fingers. […] Relief occurred within 3 minutes of topical application and lasted for 2-4 hours.
# migraine = experiment: Example 80: analgesic effect on pain and nausea from migraine headache, topical; details: 0.5% (w/v) in WEP442, topical at onset of symptoms
# Text: A subject with a history of recurrent attacks of migraine, was provided a solution composition containing 0.5% (w/v) of N-Pg-Tyr-Pro-Phe-Phe-NH2 (SEQ ID NO: 44) in WEP442 and a solution composition containing 0.5% (w/v) of N-Ac-Tyr-Pro-Phe-Phe-NHNH2 (SEQ ID NO: 31) in WEP442. […] Sensations of nausea that might have lingered went away after several minutes following a second topical application.
compound,measurement,setting,value
CC(=O)N[C@@H](Cc1ccc(O)cc1)C(=O)N1CCC[C@H]1C(=O)N[C@@H](Cc1ccccc1)C(=O)N[C@@H](Cc1ccccc1)C(N)=O [N-Ac-Tyr-Pro-Phe-Phe-NH2],duration of headache alleviation,[1],18 h
same,pain relief,[1],headache pain disappeared completely
same,time to pain relief,[1],Within minutes
same,duration of pain relief,neck and shoulder pain,more than 2 hours
same,relief of pain in shoulder and neck,neck and shoulder pain,approximately 90%
same,time to pain relief,neck and shoulder pain,≤ 2 min
same,time to pain relief,"[2]; 1% (w/v) in WEP442, topical",≤ 1 min
same,pain relief,"[2]; 1% (w/v) in WEP442, topical to facial maxillary area",complete relief of pain
same,pain relief,pain at injection sites,completely relieved the pain
same,recurrence,pain at injection sites,did not return
same,time to pain relief,pain at injection sites,≤ 1 min
same,pain relief,knee pain,complete relief of pain
same,recurrence,knee pain,pain free the next morning and thereafter
same,time to pain relief,knee pain,less than 1 minute
same,pain relief,[3],rapid complete relief of pain
same,duration of pain relief,[4],about 4 hours
same,pain relief,[4],complete relief of pain
same,duration of pain relief,[5],6 to 8 h
same,pain relief,[5],undetectable
same,effect on sharp punctate pain,[6],did not prevent nor relieve the sharp punctate pain
N-Pg-Tyr-Pro-Phe-Phe-NH2 ([pGlu]YPFF-NH2; SMILES NC(=O)[C@H](Cc1ccccc1)NC(=O)[C@H](Cc1ccccc1)NC(=O)[C@@H]1CCCN1C(=O)[C@H](Cc1ccc(O)cc1)NC(=O)[C@@H]1CCC(=O)N1),pain relief,[3],rapid relief of pain
same,duration of pain relief,[7],about 4 hours
same,pain relief,[7],almost completely relieved
same,duration of pain relief,[4],about 4 hours
same,pain relief,[4],complete relief of pain
same,duration of pain relief,[8],2 to 3 h
same,pain relief,[8],"rapid, almost complete, relief of pain sensations"
same,duration of relief,"carpal tunnel syndrome; 0.5% (w/v) in WEP442, topical",2 to 4 h
same,time to relief,"carpal tunnel syndrome; 0.5% (w/v) in WEP442, topical",≤ 3 min
same,relief of symptoms,"carpal tunnel syndrome; 0.5% (w/v) in WEP442, topical several times during working hours",substantial relief of the symptoms
same,pain relief,migraine,complete relief of pain
